Data published in patent publication US20080282364A1, “Phosphodiesterase 9 Inhibition as Treatment for Obesity-Related Conditions” (priority 2003, published 2008).

Test system: ob/ob mice
Experiment: Effect of pharmacologic PDE9 inhibition on body weight, food intake and plasma metabolites in ob/ob mice
Format: in vivo, mouse
Conditions: female ob/ob mice
Description: On Day 1, plasma glucose was determined via retro-orbital blood samples. 25 μL of blood was added to 100 μL of 0.025 percent heparinized-saline in microtubes (Denville Scientific, Inc., Metuchen, N.J.). The tubes were spun at the highest setting in a Beckman Microfuge 12 for 2 minutes. Plasma was collected for plasma glucose and triglyceride determination, as further described below. During the course of the study, body weight and food consumption were assessed, and blood samples were taken at approximately 8 am for plasma glucose and triglyceride measures, as further described below.
Plasma glucose, triglycerides, and fructosamine were measured using the Roche/Hitachi 912 Clinical Chemistry Analyzer (Roche Diagnostics Corp., Indianapolis, Ind.). Plasma cGMP was measured using the BioTrak™ enzyme-immunoassay system (Amersham, Piscataway, N.J.). Plasma insulin was assessed via a similar technique using the Mercodia ELISA Insulin kit supplied by ALPCO (Uppsala, Sweden). All assays were conducted according to each manufacturer's instructions.
Female ob/ob mice obtained from Jackson Laboratories (Bar Harbor, Me.) were used at 6 to 10 weeks of age. Mice were housed five per cage and allowed free access to water and, initially, to D11 mouse chow. Following a one week acclimation period, mice were switched to a powdered diet (Mouse Breeder/Auto-JL K20 mouse chow, PMI Feeds, Inc., St. Louis, Mo.) for three days and allowed to adapt to the diet prior to the start of the PDE9 inhibitor dosing period.
The PDE9 inhibitor compound (Compound A) was administered in powdered mouse chow that was custom ground (Research Diets, Inc., New Brunswick, N.J.) as a compound/chow admixture; compounds were mixed with the chow to achieve consumption of the specified doses ranging from 1-200 mg/kg/day. In addition to a compound-free control group, a group consuming darglitazone (1 mg/kg/day) was also included as a positive control.
Mice were randomly assigned to groups of ten with five mice per cage. Body weight was determined on Day 0 and weekly thereafter. On Day 1, retro-orbital blood samples were obtained and plasma glucose was determined as previously described. On the final day of the study, blood samples were taken for glucose, triglyceride, insulin, and cGMP measurements, as previously described.

With `CC(C)c1n[nH]c2c(=O)[nH]c(Cc3ccccc3OCCN3CCOCC3)nc12` [Compound A, 3-isopropyl-5-[2-(2-morpholin-4-yl-ethoxy)-benzyl]-1,6-dihydro-pyrazolo[4,3-d]pyrimidin-7-one] the plasma glucose (100 mg/kg/day (FIG. 10)) was “decreased”, the plasma triglycerides (100 mg/kg/day (FIG. 11)) was “decreased” and the body weight gain (100 mg/kg/day in chow, compared to compound-free control diet or darglitazone-treated diet (FIG. 7)) was “reduced body weight gain”. The plasma fructosamine (100 mg/kg/day, Day 16 (FIG. 12)) was “decreased”, the food intake (100 mg/kg/day, later stages of the study (FIG. 9)) was “no effect on food intake” and the “reducing the normal body weight gain (dose effect)” value (following 2 and 4 days of treatment (FIG. 8A)) was “dose-dependent effect”. For the same compound, the “reducing food intake (dose effect)” value (following 2 and 4 days of treatment (FIG. 8B)) was “dose-dependent effect”.
